Test results reported in ChEMBL document CHEMBL4190178 (Medchemcomm, 2016).
Active and inactive are the calls of the source. The rule behind the calls is not given here.

Assays:
LNCaP [1] = test: Cytotoxicity against human LNCAP cells assessed as reduction in cell viability after 24 hrs by MTT assay; type: functional, cell-based
Rattus norvegicus [2] = test: Anti-androgenic activity in benign prostatic hyperplasia Sprague-Dawley rat model assessed as reduction in citral-induced prostate weight at 10 mg/kg, po qd co-administered with citral for 21 days starting post 8 days of citral alone treatment; type: functional; design: scale not given: the % may be the effect or the level left
Rattus norvegicus [3] = test: Toxicity in benign prostatic hyperplasia Sprague-Dawley rat model assessed as effect on seminal vesicle weight at 10 mg/kg, po qd co-administered with citral for 21 days starting post 8 days of citral alone treatment; type: organism-based; settings: in vivo
Rattus norvegicus [4] = test: Toxicity in benign prostatic hyperplasia Sprague-Dawley rat model assessed as effect on testis weight at 10 mg/kg, po qd co-administered with citral for 21 days starting post 8 days of citral alone treatment; type: organism-based; settings: in vivo
Rattus norvegicus [5] = test: Toxicity in benign prostatic hyperplasia Sprague-Dawley rat model assessed as effect on epididymis weight at 10 mg/kg, po qd co-administered with citral for 21 days starting post 8 days of citral alone treatment; type: organism-based; settings: in vivo
Rattus norvegicus [6] = test: (§1) Anti-androgenic activity in citral-induced benign prostatic hyperplasia Sprague-Dawley rat model assessed as reduction in stromal component at 10 mg/kg, po qd co-administered with citral for 21 days starting post 8 days of citral alone treatment by hematoxyline and eosin staining based light microscopic analysis; type: functional, organism-based
Rattus norvegicus [7] = test: as §1, with “tissue differentiation into stroma” for “stromal component”; type: functional, organism-based
Rattus norvegicus [8] = test: as §1, with “tissue differentiation into acinar compartments” for “stromal component”; type: functional, organism-based
[9] = target: T1, Androgen receptor (Homo sapiens) (UniProt P10275); test: Antagonist activity at androgen receptor in human LNCAP cells assessed as decrease in testosterone-induced PSA expression levels at 10 uM after 24 hrs by Western blot analysis; type: cell-based
T1 sequence (whole entry): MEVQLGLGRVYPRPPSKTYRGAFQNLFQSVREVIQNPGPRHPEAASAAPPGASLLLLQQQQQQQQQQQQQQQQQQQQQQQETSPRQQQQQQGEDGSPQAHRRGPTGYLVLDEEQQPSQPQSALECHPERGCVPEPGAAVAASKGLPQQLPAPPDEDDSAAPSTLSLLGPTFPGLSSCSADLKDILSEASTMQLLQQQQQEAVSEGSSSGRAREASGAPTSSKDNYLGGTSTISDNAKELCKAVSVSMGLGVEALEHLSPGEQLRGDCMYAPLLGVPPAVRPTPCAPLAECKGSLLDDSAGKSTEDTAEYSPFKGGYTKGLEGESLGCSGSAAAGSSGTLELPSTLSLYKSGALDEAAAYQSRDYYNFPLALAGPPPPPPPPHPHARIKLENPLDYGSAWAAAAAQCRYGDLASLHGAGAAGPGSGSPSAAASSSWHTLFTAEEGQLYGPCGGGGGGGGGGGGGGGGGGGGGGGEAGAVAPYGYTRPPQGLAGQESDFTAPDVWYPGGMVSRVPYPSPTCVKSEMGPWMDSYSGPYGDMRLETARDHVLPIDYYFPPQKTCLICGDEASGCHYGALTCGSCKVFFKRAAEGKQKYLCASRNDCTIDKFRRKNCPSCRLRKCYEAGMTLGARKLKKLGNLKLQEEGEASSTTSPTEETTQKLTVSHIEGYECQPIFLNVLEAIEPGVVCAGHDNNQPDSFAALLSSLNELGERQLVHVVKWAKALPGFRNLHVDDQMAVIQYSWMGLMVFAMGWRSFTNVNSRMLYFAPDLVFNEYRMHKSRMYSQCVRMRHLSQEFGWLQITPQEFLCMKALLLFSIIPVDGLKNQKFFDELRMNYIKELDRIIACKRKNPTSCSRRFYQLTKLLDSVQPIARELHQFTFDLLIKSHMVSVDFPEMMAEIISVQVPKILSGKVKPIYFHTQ

[10] = target: T1, Androgen receptor (Homo sapiens); test: Antagonist activity at human androgen receptor expressed in African green monkey COS7 cells at 7.5 uM after 24 hrs by ARE-dual luciferase reporter gene assay; type: cell-based
PC-3 = test: Antiproliferative activity against human PC3 cells assessed as decrease in cell viability after 24 hrs by MTT assay; type: functional, cell-based; settings: PC-3, 24 h
DU-145 = test: Antiproliferative activity against human DU145 cells assessed as decrease in cell viability after 24 hrs by MTT assay; type: functional, cell-based; settings: DU-145, 24 h
LNCaP [11] = test: Antiproliferative activity against human LNCAP cells assessed as decrease in cell viability after 24 hrs by MTT assay; type: functional, cell-based
[12] = target: T2, Alpha-1A adrenergic receptor (Homo sapiens) (UniProt P35348); test: Antagonist activity at human alpha1A adrenergic receptor expressed in Chem1 cells assessed as decrease in epinephrine-induced calcium mobilization by measuring relative fluorescence unit at 10 uM by fluoforte dye based fluorescence assay relative to epinephrine; type: functional, cell-based
T2 sequence (whole entry): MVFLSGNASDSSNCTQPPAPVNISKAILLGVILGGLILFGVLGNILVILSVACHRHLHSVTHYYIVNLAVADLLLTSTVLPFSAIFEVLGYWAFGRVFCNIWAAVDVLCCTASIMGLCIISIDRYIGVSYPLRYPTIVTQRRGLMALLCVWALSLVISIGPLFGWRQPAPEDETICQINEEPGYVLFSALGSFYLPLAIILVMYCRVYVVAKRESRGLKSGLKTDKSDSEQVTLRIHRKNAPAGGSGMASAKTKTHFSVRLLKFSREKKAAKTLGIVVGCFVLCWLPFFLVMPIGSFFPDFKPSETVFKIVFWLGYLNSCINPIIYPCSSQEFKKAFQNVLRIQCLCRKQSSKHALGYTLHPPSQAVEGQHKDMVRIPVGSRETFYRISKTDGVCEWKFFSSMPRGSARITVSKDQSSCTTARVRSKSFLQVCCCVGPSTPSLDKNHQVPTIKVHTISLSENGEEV

[13] = Cmax in Sprague-Dawley rat serum at 10 mg/kg, po administered as single dose by LC-MS/MS analysis; type: ADME, organism-based; design: dose 10 mg/kg, route oral
[14] = Tmax in Sprague-Dawley rat serum at 10 mg/kg, po administered as single dose by LC-MS/MS analysis; type: ADME, organism-based
[15] = AUClast in Sprague-Dawley rat serum at 10 mg/kg, po administered as single dose by LC-MS/MS analysis; type: ADME, organism-based; design: dose 10 mg/kg, route oral, time 0 - last
[16] = Apparent clearance in Sprague-Dawley rat serum at 10 mg/kg, po administered as single dose by LC-MS/MS analysis; type: ADME, organism-based
[17] = Apparent volume of distribution in Sprague-Dawley rat serum at 10 mg/kg, po administered as single dose by LC-MS/MS analysis; type: ADME, organism-based
[18] = Cmax in Sprague-Dawley rat prostate at 10 mg/kg, po administered as single dose by LC-MS/MS analysis; type: ADME, organism-based, Prostate gland; design: dose 10 mg/kg, route oral
[19] = Tmax in Sprague-Dawley rat prostate at 10 mg/kg, po administered as single dose by LC-MS/MS analysis; type: ADME, organism-based, Prostate gland
[20] = AUClast in Sprague-Dawley rat prostate at 10 mg/kg, po administered as single dose by LC-MS/MS analysis; type: ADME, organism-based, Prostate gland; settings: in vivo
[21] = Apparent clearance in Sprague-Dawley rat prostate at 10 mg/kg, po administered as single dose by LC-MS/MS analysis; type: ADME, organism-based, Prostate gland; settings: in vivo
[22] = Ratio of AUClast in Sprague-Dawley rat prostate to serum at 10 mg/kg, po administered as single dose by LC-MS/MS analysis; type: ADME, organism-based; settings: read-out: Ratio AUC
[23] = Apparent volume of distribution in Sprague-Dawley rat prostate at 10 mg/kg, po administered as single dose by LC-MS/MS analysis; type: ADME, organism-based, Prostate gland; settings: in vivo
[24] = Cmax in Sprague-Dawley rat hypothalamus at 10 mg/kg, po administered as single dose by LC-MS/MS analysis; type: ADME, organism-based; design: dose 10 mg/kg, route oral
[25] = Tmax in Sprague-Dawley rat hypothalamus at 10 mg/kg, po administered as single dose by LC-MS/MS analysis; type: ADME, organism-based
[26] = AUClast in Sprague-Dawley rat hypothalamus at 10 mg/kg, po administered as single dose by LC-MS/MS analysis; type: ADME, organism-based; settings: in vivo
[27] = Ratio of AUClast in Sprague-Dawley rat hypothalamus to serum at 10 mg/kg, po administered as single dose by LC-MS/MS analysis; type: ADME, organism-based; settings: read-out: Ratio AUC
[28] = Apparent clearance in Sprague-Dawley rat hypothalamus at 10 mg/kg, po administered as single dose by LC-MS/MS analysis; type: ADME, organism-based; settings: in vivo
[29] = Apparent volume of distribution in Sprague-Dawley rat hypothalamus at 10 mg/kg, po administered as single dose by LC-MS/MS analysis; type: ADME, organism-based; settings: in vivo

O=C(N1CCN(c2ccc([N+](=O)[O-])cc2)CC1)N1CCN(c2ccc([N+](=O)[O-])cc2C(F)(F)F)CC1
EC50 (LNCaP [1]): 76.1 µM

CC(C)C(=O)Nc1ccc([N+](=O)[O-])c(C(F)(F)F)c1 [FLUTAMIDE]
EC50 (LNCaP [1]): 7 µM
Activity (Rattus norvegicus [2]): 51.8%
Activity (Rattus norvegicus [3]): Non-Toxic
Activity (Rattus norvegicus [4]): Non-Toxic
Activity (Rattus norvegicus [5]): Non-Toxic
Activity (Rattus norvegicus [6]): Active
Activity (Rattus norvegicus [7]): Active
Activity (Rattus norvegicus [8]): Active

O=C(CN1CCN(c2ncccn2)CC1)N1CCN(c2ncccn2)CC1
EC50 (LNCaP [1]): 48.2 µM

O=C(CN1CCN(c2ccc([N+](=O)[O-])cc2)CC1)N1CCN(c2ccc([N+](=O)[O-])cc2)CC1
EC50 (LNCaP [1]): 11.2 µM
Activity [9]: Active
Activity [10]: Active
EC50 (PC-3): > 80 µM
EC50 (DU-145): > 80 µM
EC50 (LNCaP [11]): 11.2 µM
fold change (FC) [12]: 1.6
Activity (Rattus norvegicus [2]): 46.2%
Activity (Rattus norvegicus [3]): Non-Toxic
Activity (Rattus norvegicus [4]): Non-Toxic
Activity (Rattus norvegicus [5]): Non-Toxic
Activity (Rattus norvegicus [6]): Active
Activity (Rattus norvegicus [7]): Active
Activity (Rattus norvegicus [8]): Active
Cmax [13]: 1100 ng/mL
Tmax [14]: 10 h
AUC(0-t) [15]: 24100 ng·h/mL
CL/F [16]: 6.67 mL/min/kg
Vd/F [17]: 4.2 L/kg
Cmax [18]: 2400 ng/g
Tmax [19]: 10 h
AUClast [20]: 37.3 µg·h/g
CL/F [21]: 268.2 g/h/kg
Kp [22]: 1.5
Vd/F [23]: 2311.9 g/kg
Cmax [24]: 1200 ng/g
Tmax [25]: 10 h
AUClast [26]: 26.1 µg·h/g
Kp [27]: 1.1
CL/F [28]: 383.2 g/h/kg
Vd/F [29]: 3313.7 g/kg

COc1ccccc1N1CCN(CC(=O)N2CCN(c3ncccn3)CC2)CC1
EC50 (LNCaP [1]): 47.1 µM

COc1ccccc1N1CCN(CC(=O)N2CCN(c3ccccc3OC)CC2)CC1
EC50 (LNCaP [1]): 52.2 µM

O=C(CN1CCN(c2ccc([N+](=O)[O-])cc2)CC1)N1CCN(c2ncccn2)CC1
EC50 (LNCaP [1]): 67.9 µM

O=C(N1CCN(c2ccc([N+](=O)[O-])cc2)CC1)N1CCN(c2ccccn2)CC1
EC50 (LNCaP [1]): 69.5 µM

O=C(CCl)N1CCN(c2ccc(C(F)(F)F)cc2[N+](=O)[O-])CC1
EC50 (LNCaP [1]): 41.1 µM

O=C(N1CCN(c2ccc([N+](=O)[O-])cc2)CC1)N1CCN(c2ccc(C(F)(F)F)cc2[N+](=O)[O-])CC1
EC50 (LNCaP [1]): > 80 µM

COc1ccccc1N1CCN(C(=O)CN2CCN(c3ccccn3)CC2)CC1
EC50 (LNCaP [1]): 45.9 µM

COc1ccccc1N1CCN(C(=O)CN2CCN(c3ccc([N+](=O)[O-])cc3)CC2)CC1
EC50 (LNCaP [1]): 63.1 µM

O=C(CN1CCN(c2ccc(C(F)(F)F)cc2[N+](=O)[O-])CC1)N1CCN(c2ccc(C(F)(F)F)cc2[N+](=O)[O-])CC1
EC50 (LNCaP [1]): 48.2 µM

O=C(CN1CCN(c2ncccn2)CC1)N1CCN(c2ccc([N+](=O)[O-])cc2)CC1
EC50 (LNCaP [1]): 51.7 µM
